Test system: MDA231 cells expressing CD/UPRT
Test: Flura-tagged mRNA immunoprecipitation from MDA231 CD/UPRT cells co-cultured with mouse 4T1 cells, RT-PCR
Type: cell-based, human
Conditions: 12 h, 100-1000 MDA231 cells to 10^6 4T1 cells
Experimental: FIG. 1a-f. Labeling and purification of RNA by CD expression and 5-FC treatment. FIG. 1a—Schematic diagram showing RNA labeling using CD and 5-FC. FIG. 1b—Chemical reactions steps involved in the labeling of RNA using CD and 5-FC. The dotted arrow indicates the intermediary steps that are not shown. FIG. 1c Relative fold enrichment of mRNA isolated by Flura-tagging. 293T cells expressing CD or unlabeled controls were treated with 5-FC for the indicated times, labeled mRNAs were immunopurified using anti-BrdU antibody, and the levels of labeled mRNAs of the indicated genes relative to corresponding non-immunoprecipitated inputs normalized to immunopurified mRNAs from cells not expressing CD were quantified by RT-PCR. […] Cells were analyzed by immunofluorescence or harvested for RNA analysis. […] The fold enrichment of the indicated representative human genes over mouse housekeeping genes (mHPRT1 and mLDH1) was measured by RT-PCR (n=3±S.E.). […]
Next, we determined whether this system could be used to isolate RNA specifically from cells of interest that were admixed with a large proportion of other cells. […] After 12 h of 5-FC addition, 5-FU-labeled mRNAs were immunoprecipitated, and the proportion of human and mouse mRNA for representative housekeeping genes were determined by reverse transcriptase-polymerase chain reaction (RT-PCR). […]

Nc1nc(=O)[nH]cc1F [5-FC, 5-fluorocytosine] was tested, and the “enrichment of human mRNAs compared to mouse mRNAs” value was “more than 10^5 fold”.

From patent US20200032249A1, “LABELING, ISOLATION, & ANALYSIS OF RNA FROM RARE CELL POPULATIONS” (priority 2017, published 2020)
